Assay results from the NIST ThermoML archive (doi:10.1021/acs.jced.9b00046).
± gives the expanded uncertainty stated by the source.

Conditions: 99.6 kPa, Liquid; for viscosity: Capillary tube (Ostwald / Ubbelohde) method; for mass density: Vibrating tube method

A viscosity (308.15 K) of 3.488 ± 0.043 mPa·s, a mass density (308.15 K) of 945.71 ± 1.9 kg/m3 and a viscosity (313.15 K) of 3.073 ± 0.038 mPa·s were found for `CNC(C)=O` [N-methylacetamide] in this work. For the same molecule, the mass density (313.15 K) was 941.53 ± 1.9 kg/m3, the viscosity (318.15 K) was 2.723 ± 0.034 mPa·s and the mass density (318.15 K) was 937.33 ± 1.9 kg/m3. For the same molecule, the viscosity (323.15 K) was 2.438 ± 0.03 mPa·s, the mass density (323.15 K) was 933.16 ± 1.9 kg/m3 and the viscosity (328.15 K) was 2.194 ± 0.027 mPa·s. It also gave a mass density (328.15 K) of 928.93 ± 1.9 kg/m3.
